Patent publication US5480869A, “Anti-inflammatory peptide analogs and treatment to inhibit vascular leakage in injured tissues” (The Regents of the University of California, priority 1993, dated 1996)
“And” between values parts separate entries of the source, which are not always exact repeats. Equal entries are not always repeated. Where a SMILES comes first, the peptide text is derived from it. [ ]: non-standard residue; d: D form.

test system: rat's hind paw heat-edema; assay: heat-induced paw edema in pentobarbital-anesthetized rat (58° C. water, 1 minute); type: in vivo; conditions: dose 1 mg/kg i.v., ten minutes before 58° C. water for 1 minute; edema measured 30 minutes after heat
Experimental: The inventive peptides were dissolved either in saline or saline acidified with 0.1 M acetic acid and injected intravenously into a pentobarbital-anesthetized rat. The rat's hind paw was then immersed in 58°-60° C. water for 1 minute and the increase in paw weight, as an index of edema and swelling, was measured 30 minutes later. For some peptides, the ability of the substances to inhibit vascular leakage after muscle injury was also tested. Normally, the paw weight of saline-treated animals (controls) will increase by about 65-95% after heat injury. The increase in weight is relative to the contralateral non-heated paw.
In screening the bioactivity of new peptides, a dose of 5 mg/kg i.v. was initially used. In later studies, when greater activity was expected, a screening dose of 1 to 2 mg/kg i.v. was used.
Thus, each peptide was injected intravenously (at the amounts specified, usually 1 or 5 mg/kg, or by full dose-response analysis) 10 minutes (for 7/8-mers) or one hour (for 11-mers) before immersion of the right paw in 58° C. water, for 1 minute, and weights of both paws were obtained 30minutes later. To obtain statistical accuracy, four to six animals were used in each group. The % wt increase was calculated as (wt of heated paw--wt of unheated paw/wt of unheated paw)×100 and converted to % of the saline control group values, which were run concurrently.

Row | Molecule | Heat-Edema % Saline Values
1 | CC[C@H](C)[C@H](NC(=O)[C@@H](CCCCN)NC(=O)[C@H](CC(C)C)NC(=O)[C@H](CC(C)C)NC(=O)[C@H](CCCCN)NC(=O)[C@H](CCCNC(=N)N)NC(C)=O)C(=O)N[C@H](CC(C)C)C(N)=O [Composition 19] (HELM PEPTIDE1{[ac].R.K.L.L.[dK].I.[dL].[am]}$$$$V2.0) | 23 ± 8 % Saline Values

same assay, conditions: dose 2 mg/kg i.v., ten minutes before 58° C. water for 1 minute; edema measured 30 minutes after heat

Row | Molecule | Heat-Edema % Saline Values
2 | CC[C@H](C)[C@H](NC(=O)[C@H]1CCCN1C(=O)[C@H](CCSC)NC(=O)[C@H](CC(C)C)NC(=O)[C@H](CCCCN)NC(=O)[C@@H](N)CCCNC(=N)N)C(=O)N[C@H](CC(C)C)C(N)=O [Composition 14] (HELM PEPTIDE1{R.K.L.M.[dP].I.[dL].[am]}$$$$V2.0) | 21 ± 3 % Saline Values
3 | CC[C@H](C)[C@H](NC(=O)[C@H](Cc1ccc(OC)cc1)NC(=O)[C@H](CCSC)NC(=O)[C@H](CC(C)C)NC(=O)[C@H](CCCCN)NC(=O)[C@@H](CCCCN)NC(C)=O)C(=O)N[C@H](CC(C)C)C(N)=O [Composition 16] (Ac-[dK]KLMY(Me)I[dL]-NH2) | 67 ± 11 % Saline Values
4 | CC[C@H](C)[C@H](NC(=O)[C@H](Cc1ccc(OC)cc1)NC(=O)[C@@H](NC(=O)[C@H](CC(C)C)NC(=O)[C@H](CCCCN)NC(=O)[C@H](CCCNC(=N)N)NC(C)=O)C(C)C)C(=O)N[C@H](CC(C)C)C(N)=O [Composition 17] (Ac-RKLVY(Me)I[dL]-NH2) | 49 ± 9 % Saline Values
5 | CC[C@H](C)[C@H](NC(=O)[C@H](Cc1ccc(OC)cc1)NC(=O)[C@H](CCSC)NC(=O)[C@H](CC(C)C)NC(=O)[C@H](CCCCN)NC(=O)[C@H](CCCNC(=N)N)NC(C)=O)C(=O)N[C@H](CC(C)C)C(N)=O [Composition 18] (Ac-RKLMY(Me)I[dL]-NH2) | 27 ± 1 % Saline Values

same assay, conditions: dose 5 mg/kg i.v., ten minutes before 58° C. water for 1 minute; edema measured 30 minutes after heat; N.S. = not different from saline

Row | Molecule | Heat-Edema % Saline Values
6 | CC[C@H](C)[C@H](NC(=O)[C@H](Cc1ccc(O)cc1)NC(=O)[C@H](CCSC)NC(=O)[C@H](CC(C)C)NC(=O)[C@H](CCCCN)NC(=O)[C@@H](N)CCCNC(=N)N)C(=O)N[C@H](CC(C)C)C(N)=O [Composition 5] (HELM PEPTIDE1{R.K.L.M.Y.I.[dL].[am]}$$$$V2.0) | 70 ± 9 % Saline Values
7 | CC[C@H](C)[C@H](NC(=O)[C@H](CC(C)C)NC(=O)[C@H](CCSC)NC(=O)[C@H](CC(C)C)NC(=O)[C@H](CCCCN)NC(=O)[C@@H](N)CCCNC(=N)N)C(=O)N[C@H](CC(C)C)C(N)=O [Composition 6] (HELM PEPTIDE1{R.K.L.M.L.I.[dL].[am]}$$$$V2.0) | 67 ± 10 % Saline Values
8 | CC[C@H](C)[C@H](NC(=O)[C@H](Cc1c[nH]c2ccccc12)NC(=O)[C@H](CCSC)NC(=O)[C@H](CC(C)C)NC(=O)[C@H](CCCCN)NC(=O)[C@@H](N)CCCNC(=N)N)C(=O)N[C@H](CC(C)C)C(N)=O [Composition 7] (HELM PEPTIDE1{R.K.L.M.W.I.[dL].[am]}$$$$V2.0) | 38 ± 5 % Saline Values
9 | CC[C@H](C)[C@H](NC(=O)[C@H](CCCCN)NC(=O)[C@H](CC(C)C)NC(=O)[C@H](CC(C)C)NC(=O)[C@H](CCCCN)NC(=O)[C@@H](N)CCCNC(=N)N)C(=O)N[C@H](CC(C)C)C(N)=O [Composition 8] (HELM PEPTIDE1{R.K.L.L.K.I.[dL].[am]}$$$$V2.0) | 38 ± 10 % Saline Values
10 | CC[C@H](C)[C@H](NC(=O)[C@H](CCCNC(=N)N)NC(=O)[C@H](CC(C)C)NC(=O)[C@H](CC(C)C)NC(=O)[C@H](CCCCN)NC(=O)[C@@H](N)CCCNC(=N)N)C(=O)N[C@H](CC(C)C)C(N)=O [Composition 9] (HELM PEPTIDE1{R.K.L.L.R.I.[dL].[am]}$$$$V2.0) | 18 ± 3 % Saline Values
11 | CC[C@H](C)[C@H](NC(=O)[C@H](Cc1ccc(F)cc1)NC(=O)[C@H](CC(C)C)NC(=O)[C@H](CC(C)C)NC(=O)[C@H](CCCCN)NC(=O)[C@@H](N)CCCNC(=N)N)C(=O)N[C@H](CC(C)C)C(N)=O [Composition 10] (HELM PEPTIDE1{R.K.L.L.[O=C([C@H](Cc1ccc(F)cc1)N[*:1])[*:2]].I.[dL].[am]}$$$$V2.0) | 54 ± 11 % Saline Values
12 | CC[C@H](C)[C@H](NC(=O)[C@H](Cc1ccc(I)cc1)NC(=O)[C@H](CC(C)C)NC(=O)[C@H](CC(C)C)NC(=O)[C@H](CCCCN)NC(=O)[C@@H](N)CCCNC(=N)N)C(=O)N[C@H](CC(C)C)C(N)=O [Composition 11] (HELM PEPTIDE1{R.K.L.L.[O=C([C@H](Cc1ccc(I)cc1)N[*:1])[*:2]].I.[dL].[am]}$$$$V2.0) | 49 ± 6 % Saline Values
13 | CC[C@H](C)[C@H](NC(=O)[C@H](Cc1ccc([N+](=O)[O-])cc1)NC(=O)[C@H](CC(C)C)NC(=O)[C@H](CC(C)C)NC(=O)[C@H](CCCCN)NC(=O)[C@@H](N)CCCNC(=N)N)C(=O)N[C@H](CC(C)C)C(N)=O [Composition 12] (HELM PEPTIDE1{R.K.L.L.[O=C([C@H](Cc1ccc([N+](=O)[O-])cc1)N[*:1])[*:2]].I.[dL].[am]}$$$$V2.0) | 41 ± 6 % Saline Values

same assay, conditions: dose 5 mg/kg i.v., ten minutes before 58° C. water for 1 minute; edema measured 30 minutes after heat; N.S. = not different from saline; 5 mg/kg

Row | Molecule | Heat-Edema % Saline Values
14 | CC[C@H](C)[C@H](NC(=O)[C@H](Cc1ccc(Cl)cc1)NC(=O)[C@H](CC(C)C)NC(=O)[C@H](CC(C)C)NC(=O)[C@H](CCCCN)NC(=O)[C@@H](N)CCCNC(=N)N)C(=O)N[C@H](CC(C)C)C(N)=O [Composition 13] (HELM PEPTIDE1{R.K.L.L.[O=C([C@H](Cc1ccc(Cl)cc1)N[*:1])[*:2]].I.[dL].[am]}$$$$V2.0) | 15 ± 5 % Saline Values and 15 % Saline Values

same assay, conditions: heat-edema, relative to saline controls

Row | Molecule | anti-inflammatory activity, result in words
15 | CC[C@H](C)[C@H](NC(=O)[C@H](Cc1ccc(OC)cc1)NC(=O)[C@H](CCSC)NC(=O)[C@H](CC(C)C)NC(=O)[C@H](CCCCN)NC(=O)[C@@H](CCCCN)NC(C)=O)C(=O)N[C@H](CC(C)C)C(N)=O [Composition 16] (Ac-[dK]KLMY(Me)I[dL]-NH2) | retention of activity
16 | CC[C@H](C)[C@H](NC(=O)[C@H](Cc1ccc(OC)cc1)NC(=O)[C@@H](NC(=O)[C@H](CC(C)C)NC(=O)[C@H](CCCCN)NC(=O)[C@H](CCCNC(=N)N)NC(C)=O)C(C)C)C(=O)N[C@H](CC(C)C)C(N)=O [Composition 17] (Ac-RKLVY(Me)I[dL]-NH2) | retains activity, albeit at a lower potency
17 | CC[C@H](C)[C@H](NC(=O)[C@H](Cc1ccc(OC)cc1)NC(=O)[C@H](CCSC)NC(=O)[C@H](CC(C)C)NC(=O)[C@H](CCCCN)NC(=O)[C@H](CCCNC(=N)N)NC(C)=O)C(=O)N[C@@H](C(N)=O)C(C)C [Composition 25] (Ac-RKLMY(Me)I[dV]-NH2) | retains activity
18 | CC[C@H](C)[C@H](NC(=O)[C@H](CCCNC(=N)N)NC(=O)[C@H](CCCNC(=N)N)NC(C)=O)C(=O)N[C@H](C(=O)N[C@@H](Cc1ccc(OC)cc1)C(=O)N[C@H](C(=O)N[C@H](CC(C)C)C(N)=O)[C@@H](C)CC)[C@@H](C)CC [Composition 26] (Ac-RRIIY(Me)I[dL]-NH2) | potent anti-inflammatory properties

same assay, conditions: i.v.; 11-mers, injected one hour before 58° C. water for 1 minute; paw weight 30 minutes later; Table 1

Row | Molecule | ED50 (95% confidence limits)
19 | 1ATyRKLL(β-thienyl-D--Ala)Il-NH2 | 0.015 (0.006-0.036) mg/kg

same assay, conditions: i.y. [sic]; 7/8-mers, ten minute interval between administration and 58° C. water for 1 minute; edema 30 minutes after heat; Table 3

Row | Molecule | ED50 (95% confidence limits)
20 | CC[C@H](C)[C@H](NC(=O)[C@@H](Cc1c[nH]cn1)NC(=O)[C@H](CC(C)C)NC(=O)[C@H](CC(C)C)NC(=O)[C@H](CCCCN)NC(=O)[C@@H](N)CCCNC(=N)N)C(=O)N[C@H](CC(C)C)C(N)=O [Composition 20] (HELM PEPTIDE1{R.K.L.L.[dH].I.[dL].[am]}$$$$V2.0) | 2.3 (1.2-4.2) mg/kg
21 | CC[C@H](C)[C@H](NC(=O)[C@@H](CCCNC(=N)N)NC(=O)[C@H](CC(C)C)NC(=O)[C@H](CC(C)C)NC(=O)[C@H](CCCCN)NC(=O)[C@@H](N)CCCNC(=N)N)C(=O)N[C@H](CC(C)C)C(N)=O [Composition 21] (HELM PEPTIDE1{R.K.L.L.[dR].I.[dL].[am]}$$$$V2.0) | 2.0 (0.80-5.0) mg/kg
22 | CC[C@H](C)[C@H](NC(=O)[C@@H](CC(C)C)NC(=O)[C@H](CC(C)C)NC(=O)[C@H](CC(C)C)NC(=O)[C@H](CCCCN)NC(=O)[C@@H](N)CCCNC(=N)N)C(=O)N[C@H](CC(C)C)C(N)=O [Composition 23] (HELM PEPTIDE1{R.K.L.L.[dL].I.[dL].[am]}$$$$V2.0) | 1.3 (0.50-3.6) mg/kg
23 | CC[C@H](C)[C@H](NC(=O)[C@@H](Cc1c[nH]c2ccccc12)NC(=O)[C@H](CC(C)C)NC(=O)[C@H](CC(C)C)NC(=O)[C@H](CCCCN)NC(=O)[C@@H](N)CCCNC(=N)N)C(=O)N[C@H](CC(C)C)C(N)=O [Composition 24] (HELM PEPTIDE1{R.K.L.L.[dW].I.[dL].[am]}$$$$V2.0) | 0.82 (0.56-1.2) mg/kg
24 | CC[C@H](C)[C@H](NC(=O)[C@H](Cc1ccc(OC)cc1)NC(=O)[C@H](CCSC)NC(=O)[C@H](CC(C)C)NC(=O)[C@H](CCCCN)NC(=O)[C@H](CCCNC(=N)N)NC(C)=O)C(=O)N[C@@H](C(N)=O)C(C)C [Composition 25] (Ac-RKLMY(Me)I[dV]-NH2) | 1.0 (0.52-1.9) mg/kg
25 | CC[C@H](C)[C@H](NC(=O)[C@H](CCCNC(=N)N)NC(=O)[C@H](CCCNC(=N)N)NC(C)=O)C(=O)N[C@H](C(=O)N[C@@H](Cc1ccc(OC)cc1)C(=O)N[C@H](C(=O)N[C@H](CC(C)C)C(N)=O)[C@@H](C)CC)[C@@H](C)CC [Composition 26] (Ac-RRIIY(Me)I[dL]-NH2) | 0.70 (0.40-1.2) mg/kg
26 | CC[C@H](C)[C@H](NC(=O)[C@H](Cc1ccc(OC)cc1)NC(=O)[C@H](CCSC)NC(=O)[C@H](CC(C)C)NC(=O)[C@H](CCCCN)NC(=O)[C@@H](CCCNC(=N)N)NC(C)=O)C(=O)N[C@H](CC(C)C)C(N)=O [Composition 27] (Ac-[dR]KLMY(Me)I[dL]-NH2) | 0.52 (0.19-1.8) mg/kg
27 | CC[C@H](C)[C@H](NC(=O)[C@H](Cc1ccc(OC)cc1)NC(=O)[C@H](CCSC)NC(=O)[C@H](CC(C)C)NC(=O)[C@H](CCCCN)NC(=O)[C@H](CCCNC(=N)N)NC(=O)[C@H](Cc1ccc(OC)cc1)NC(C)=O)C(=O)N[C@H](CC(C)C)C(N)=O [Composition 29] (Ac-Y(Me)RKLMY(Me)I[dL]-NH2) | 0.22 (0.09-0.55) mg/kg
